In patent US20230323292A1, “METHODS FOR PRODUCING A (THREE DIMENSIONAL) NEURAL TISSUE” (TECHNISCHE UNIVERSITEIT EINDHOVEN, priority 2020, published 2023):
Where a name gives a salt, the structure may show the parent alone.

System: MARC-produced cerebral tissues
Experiment: Live calcium imaging of interconnected MARC-produced cerebral tissues in the iS3CC chip after Penicillin G treatment of one chamber
Assay type: cell-based, human
Description: The transparent PDMS devices were repeatedly washed using 70% ethanol followed by sterilization using UV light in the safety cabinets (3×5 min). After neuronal induction phase, the cells were disassociated using Accutase and resuspended in 35 μl of a mixture of cold GFR-Matrigel and differentiation medium with a 70:30 v/v ratio at a final concentration of 50,000 cells per chamber. The chips containing cells and Matrigel-medium mixture were placed in a Petri dish to prevent contamination, since the chips have an open top, and kept in an incubator at 37° C. and 5% CO2 for 5 min to polymerize the Matrigel mixture. After that, an additional 200 μl of differentiation medium was added to each chamber and the chips were placed back into the incubator. The medium was refreshed and the culture was continued as described above, with gentler handing to prevent damage to the gel and cells.
Live calcium imaging was performed with the same widefield epifluorescence microscope, equipped with temperature, CO2, and humidity control. The tissues were incubated in the recommended concentrations of Fluo-4 direct according to the manufacturer (Molecular Probes, F10471) for 50 min in the incubator at 37° C. and 10 min at room temperature. After that, the tissues were washed five times with the neural maintenance medium. The calcium surges were recorded using an excitation of 488 nm and an emission of 530 nm every 10 seconds. Fluorescence images were obtained using a widefield epifluorescence microscope (Leica DMi8) equipped with either a 5×/0.15 HC PL Fluotar or a 10×/0.32 HC PL Fluotar objective lens. […]
Neuronal activity was analyzed from the time-lapse images. To account for possible drifts or deformations of the tissues, the location of the cells was detected in each frame and linked across the frames using the Mosaic particle tracker plugin in ImageJ. The fluorescence intensity of each detected cell was calculated from the image intensity data using MATLAB. Occasional gaps in the time traces, due to the cells not being detected in certain frames, were filled using spline interpolation of the intensity values. The background fluorescence in each chamber was calculated in the same way using 10 arbitrarily selected cell-sized ROIs in the cell-free regions of each chamber, averaged, and subtracted from the real (cell) data. Further, the intensity values were corrected for imaging artifacts due to out-of-focus fluorescence by subtracting the mean intensity of an annular mask with an outer radius of 18 pixels and an inner radius of 9 pixels (i.e., size of the ROI) for each ROI. […]

For `CC1(C)S[C@@H]2[C@H](NC(=O)Cc3ccccc3)C(=O)N2[C@H]1C(=O)O` [Penicillin G, Penicillin G sodium salt], the “propagation of synchronized transient peaks from treated tissue to cells in the untreated tissue (share of the time)” value (4 cells per tissue, post-treatment with Penicillin G (FIG. 4e,f)) was about 45%, the “fluorescence in the treated tissue compared to the baseline” value (treated chamber, immediately following treatment, Penicillin G sodium salt 100 mg/ml bath application, Fluo-4 calcium imaging) was “increased amount of fluorescence” and the “neuronal activity and synchrony of transient spikes in the treated tissue” value (treated chamber, post-treatment, Penicillin G 100 mg/ml, indicative for abnormal excessive discharges) was “increased magnitude and frequency of neuronal activity, as well as synchrony of transient spikes”. For the same compound, the “intensity and neuronal activity of neurons in the untreated chamber” value (untreated chamber connected across 8 μm porous membrane, post-treatment of the other chamber) was “increased intensity and neuronal activity”.
